Reference: US20080003254A1, “SYSTEMS AND METHODS FOR DELIVERING A RAPAMYCIN ANALOG THAT DO NOT INHIBIT HUMAN CORONARY ARTERY ENDOTHELIAL CELL MIGRATION” (ABBOTT LABORATORIES, priority 2006, published 2008)

Assays:
[1] = tested on: human coronary artery endothelial cells (hCaEC); assay: hCaEC migration in modified Boyden chambers; assay type: cell-based; conditions: for effect on full growth media induced hCaEC migration: 24 hours drug pretreatment in hCaEC full growth media, drug present during migration, FIG. 2; for effect on FBS-induced hCaEC migration: 24 hours drug pretreatment in growth media, migration in response to 5% FBS without additional growth factors, FIG. 3; for effect on hCaEC migration: FIG. 1A
Description: (§1) The cancer chemotherapeutic, paclitaxel is hypothesized to directly interfere with microtubule homeostasis leading to the inhibition of EC migration and proliferation, which can lead to increased thrombosis. Reduced p70S6K activation alone will not result in anti-migratory activity. To examine the comparative effects of sirolimus, zotarolimus, dexamethasone, and paclitaxel on human coronary artery smooth muscle and endothelial cell migration, studies were conducted using modified Boyden chambers. As such, EC migration in response to HFGF, HEGF, VEGF, R^3-IGF-1 and FBS was determined using a modified Boyden chamber. Migration was induced using a variety of chemotactic stimuli including fetal bovine serum (FBS) in the presence and absence of growth factors as well as […] homodimer B (PDGF-BB). Anti-migratory activity was assessed after acute drug treatment and after pretreatment (24 hours) in basal or growth conditions.
(§2) Primary human coronary artery smooth muscle (hCaSMC) and endothelial cells (hCaEC) obtained from Cambrex (Walkersville, Md.) were routinely maintained in media recommended by the manufacturer. The hCaSMC were grown in a smooth muscle growth medium (“minimal media”, SmnBM, Cambrex) supplemented with the appropriate SingleQuot® to yield the complete medium containing 5% FBS, 0.1% hEGF, 0.2% hFGF-B, and 0.1% insulin (hCaSMC growth media). The hCaEC were maintained in the corresponding complete medium consisting of an endothelial cell growth medium (“minimal media”, EBM-2, Cambrex) supplemented with the appropriate SingleQuot® to yield the complete medium containing 5% FBS, 0.1% HEGF-B, 0.4% FGF, 0.1% R3-IGF, 0.04% hydrocortisone, 0.1% VEGF, and 0.1% ascorbic acid (hCaEC growth media). Cells were routinely propagated in the appropriate medium in humidified incubators maintained at 37° C. in an atmosphere containing 5% CO2. When necessary, each cell type was passed at 75% confluence.
(§3) Cells were maintained and used prior to 7 population doublings in all experiments. To expand cells prior to assay, frozen hCaSMC or hCaEC cells were thawed and cultured in T-162 flasks in smooth muscle growth medium (SmGM) or endothelial cell growth medium-2 (EGM-2), respectively, with the appropriate supplements. The cell medium was changed the next day and then every other day until cells reached 70-90% confluency. Growth medium was removed and cells were rinsed twice with PBS (without Ca^2+ and Mg^2+). To detach cells, sufficient trypsin/EDTA (3 ml) was added to cover the cell monolayer and the flask incubated at room temperature. After cells detached, trypsin was neutralized by addition of 6 ml complete medium. Cells were counted, transferred to a 50 ml tube and centrifuged. The cell pellet was re-suspended in growth medium to the appropriate cell density for experiments.
(§4) Cells (hCaEC or hCaSMC) were synchronized for 24 hours in basal media prior to all migration experiments. In acute studies, cells were collected, counted, and 200,000 hCaEC or 160,000 hCaSMC placed in the upper chambers of modified boyden chambers in 24 well plates (BD Biosciences). Plates contained microporous Fluoroblok membranes of 3.0 and 8.0 um for hCaEC and hCaSMC, respectively (Beckton Dickensen Biosciences). Chambers used in hCaEC migration experiments were coated with fibronectin (BD BioCoat). In pretreatment experiments, cells were synchronized in the presence of drug or treated for 24 hours in growth media after synchronization but prior to cell counting and migration. All cells were resuspended in basal media containing drugs or solvent (control) prior to migration. Cells were allowed to migrate in response to chemotatic agents for 22-24 hours. After migration, cells were stained with calcein-AM for 90 minutes and fluorescence determined using a plate reader capable of measuring fluorescence emitted by the bottom of the microporous filter. […]

[2] = tested on: p70S6K (T389) phosphorylation; assay: Western blot of p70S6K (T389) phosphorylation in hCaSMC; assay type: cell-based, human; conditions: 300 nM drug for 36 hours after 24 hours synchronization; FIG. 7
Description: To determine if inhibition of p70S6K was involved in serum-induced migration Western blot experiments were performed on hCaEC and hCaSMC treated using an experimental paradigm similar to those of the migration experiments. Cells were synchronized for 24 hours in basal media followed by drug treatment in growth media for 36 hours. The effects of drug treatment on p70S6K T389 phosphorylation in hCaEC are illustrated in FIG. 6A-6B.
The hCaSMC were synchronized for 24 hours in basal media and incubated in growth media with or without drugs (300 nM) for 36 hours […]. Membranes were probed with a rabbit anti-phospho-p70S6K (T389) monoclonal antibody (Cell Signaling). […] Furthermore, the anti-migratory activity of the mTOR antagonists is not likely to contribute to their anti-restenotic activity. Conversely, paclitaxel is a potent anti-migratory agent and this effect is likely to contribute to it's anti-restenotic activity.

[3] = tested on: p70S6K (T389) phosphorylation; assay: Western blot of p70S6K (T389) phosphorylation in hCaEC; assay type: cell-based, human; conditions: for effect on p70S6K T389 phosphorylation in hCaEC: 300 nM drug in growth media for 36 hours after 24 hours synchronization, FIG. 6A
Description: Human Coronary Endothelial Cells (hCaEC, Cambrex) were seeded on 100 mm plastic dishes (1-3×10^5 cells per dish) and incubated at 37° C. with 5% CO2 in complete growth media containing hFGF, HEGF, VEGF, R^3-IGF-1 and 5% FBS (GM). Cells were allowed to grow until dishes were 30-40% confluent. Cells were synchronized by incubation in basal media without supplements (BM) for 24 h. After synchronization the BM was replaced with GM containing test compounds, DMSO and BSA (Experimental dish: GM containing 300 nM test compounds, 0.1% BSA; Positive control: GM containing 0.1% BSA and 0.1% DMSO; Negative control: BM containing 0.1 or 0.5% FBS, 0.1% BSA and 0.1% DMSO).
Cells were incubated for 24 or 36 hours at 37° C. with 5% CO2. After which dishes were 50-70% confluent. Dishes were rinsed with warm PBS to remove excess FBS and than placed on ice. Whole cell lysates were prepared by adding 150-200 ul of RIPA lysis buffer at 4° C. (50 mM Tris HCl pH 8, 150 mM NaCl, 1% NP-40, 0.5% sodium deoxycholate, 0.1% SDS, 2 mM PMSF, 1 mM sodium orthovanadate, and protease inhibitor cocktail, Santa Cruz Biotechnology) to the culture dishes and collected by scrapping the plate surface with a cell scrapper. Lysates were transferred to 1 ml eppendorf tubes and incubated on ice with vortexing for 30 min. Samples were than centrifuged for 8 min at 10000 rpm. […]
The total protein concentration of the samples was determined by a modification of the method of Bradford (Quick Start Bradford Microplate Standard Assay, Bio-Rad) with bovine γ-globulin as a standard.
Total volume of the loaded sample was 45 ul containing 15 ul of 3× sample buffer (Laemmli Sample Buffer, Bio Rad), and sample (30 ul) containing 25 to 50 ug of protein. […] Denaturated samples were separated in 4-15% gradient or 12% Ready Tris-HCl gels (Bio-Rad) in running buffer 25 mM Tris, pH 8.3, 192 mM glycine, 0.1% SDS at 150-180 V for 60-90 minutes and transferred to Hybond-ECL membrane (Amersham Biosciences) in 25 mM Tris, pH 8.3, 192 mM glycine, 20% methanol at 100 V for 1 hour. […]

[4] = tested on: human coronary artery smooth muscle cells (hCaSMC); assay: hCaSMC migration in modified Boyden chambers; assay type: cell-based; conditions: for effect on FBS-induced hCaSMC migration: 24 hours drug pretreatment in growth media, migration in response to FBS alone, FIG. 4; for effect on PDGF-BB stimulated hCaSMC migration: 24 hours pretreatment, PDGF-BB (25 ng/ml), FIG. 5
Description: as §1, §2, §3, §4

pRb phosphorylation = pRb phosphorylation (Western blot, hEC); assay type: cell-based, human
From the text: Western blots have shown the levels of specific proteins using antibodies to those proteins in response to the rapamycin analog (e.g., zotarolimus). […] It has been shown that paclitaxel and zotarolimus inhibit the activation of p70S6K.
Additionally, it has been shown that paclitaxel, but not zotarolimus or dexamethasone, inhibits migration of human coronary artery endothelial cells in vitro. […] Paclitaxel blocks migration, however, all agents reduce p70S6K (T389) phosphorylation. […] Dexamethasone and zotarolimus are not predicted to inhibit re-endothelialization of vascular legions, and dexamethasone may promote re-endothelialization of vascular lesions. In contrast, paclitaxel inhibits re-endothelialization by blocking endothelial cell and/or smooth muscle cell migration.

[5] = acute drug exposure, no pretreatment, 5% FBS, 22 hour migration

Compound | effect on full growth media induced hCaEC migration [1] | effect on p70S6K T389 phosphorylation in hCaSMC [2] | effect on p70S6K T389 phosphorylation in hCaEC [3] | effect on FBS-induced hCaSMC migration [4] | effect on PDGF-BB stimulated hCaSMC migration [4] | IC50 ([4]; Homo sapiens, acute drug exposure, no pretreatment, 5% FBS, 22 hour migration, read-out: IC50 of inhibition of hCaSMC migration) [µM] | Emax ([4]; Homo sapiens, acute drug exposure, no pretreatment, 5% FBS, 22 hour migration, read-out: maximal efficacy of inhibition of hCaSMC migration) [%] | effect on FBS-induced hCaEC migration [1] | Emax ([1]; Homo sapiens, Endothelial cell, acute drug exposure, no pretreatment, 5% FBS, 22 hour migration, mean±SEM, n=3, read-out: maximal efficacy of inhibition of hCaEC migration) [%] | IC50 ([1]; Homo sapiens, Endothelial cell, acute drug exposure, no pretreatment, migration induced by 5% FBS, 22 hour migration, mean±SEM, n=3, FIG. 1C, read-out: IC50 of inhibition of hCaEC migration) [µM] | effect on hCaEC migration [1, 5] | effect on pRb phosphorylation (pRb phosphorylation) | p70S6K T389 to actin ratio compared to growth controls (densitometry) ([3]; hCaEC, 300 nM drug, FIG. 6B)
CO[C@H]1C[C@@H]2CC[C@@H](C)[C@@](O)(O2)C(=O)C(=O)N2CCCC[C@H]2C(=O)O[C@H]([C@H](C)C[C@@H]2CC[C@@H](OCCO)[C@H](OC)C2)CC(=O)[C@H](C)/C=C(\C)[C@@H](O)[C@@H](OC)C(=O)[C@H](C)C[C@H](C)/C=C/C=C/C=C/1C [everolimus] | only paclitaxel inhibits |  |  |  |  |  |  |  |  |  |  |  | 
CC(=O)O[C@H]1C(=O)[C@@]2(C)[C@H]([C@H](OC(=O)c3ccccc3)[C@]3(O)C[C@H](OC(=O)[C@H](O)[C@@H](NC(=O)c4ccccc4)c4ccccc4)C(C)=C1C3(C)C)[C@]1(OC(C)=O)CO[C@@H]1C[C@@H]2O [paclitaxel] | inhibits | reduces p70S6K | reduces T389 phosphorylation | significantly blocks | inhibited migration | 0.0874 ± 0.018 | 86.9 ± 2.9 | significantly blocks | 96.8 ± 1.8 | 0.0282 ± 0.0034 |  |  | 
CO[C@H]1C[C@@H]2CC[C@@H](C)[C@@](O)(O2)C(=O)C(=O)N2CCCC[C@H]2C(=O)O[C@H]([C@H](C)C[C@@H]2CC[C@@H](O)[C@H](OC)C2)CC(=O)[C@H](C)/C=C(\C)[C@@H](O)[C@@H](OC)C(=O)[C@H](C)C[C@H](C)/C=C/C=C/C=C/1C [sirolimus] |  |  |  |  |  |  |  |  |  |  | no effect |  | 
CO[C@H]1C[C@@H]2CC[C@@H](C)[C@@](O)(O2)C(=O)C(=O)N2CCCC[C@H]2C(=O)O[C@H]([C@H](C)C[C@@H]2CC[C@H](n3cnnn3)[C@H](OC)C2)CC(=O)[C@H](C)/C=C(\C)[C@@H](O)[C@@H](OC)C(=O)[C@H](C)C[C@H](C)/C=C/C=C/C=C/1C [zotarolimus] | only paclitaxel inhibits | completely inhibit | completely block | did not significantly block | inhibited migration |  |  | did not significantly block |  |  | no effect | reduces pRb phosphorylation | significant inhibition
